According to patent US5246959A, “Poly(aminoalkyl)aminocarbonyl aminoacyl aminodiol amino acid derivatives as anti-hypertensive agents” (G. D. Searle & Co., priority 1991, dated 1993):
Where a SMILES comes first, the peptide text is derived from it. [ ]: non-standard residue; d: D form. The star is where a group is joined. Sta = CC(C)C[C@H](N)[C@@H](O)CC(=O)O; Isovaleryl = CC(C)CC(=O)*

Legend:
Human Renin = target: T1, Human Renin (Homo sapiens, UniProt P00797); assay: human renin inhibition test in vitro (angiotensin I by radioimmunoassay); type: biochemical; conditions: pH 7.4, 37° C., two hours, human plasma
T1 construct: purchased National Institute for Biological Standards, London
T1 sequence (P00797 67-406): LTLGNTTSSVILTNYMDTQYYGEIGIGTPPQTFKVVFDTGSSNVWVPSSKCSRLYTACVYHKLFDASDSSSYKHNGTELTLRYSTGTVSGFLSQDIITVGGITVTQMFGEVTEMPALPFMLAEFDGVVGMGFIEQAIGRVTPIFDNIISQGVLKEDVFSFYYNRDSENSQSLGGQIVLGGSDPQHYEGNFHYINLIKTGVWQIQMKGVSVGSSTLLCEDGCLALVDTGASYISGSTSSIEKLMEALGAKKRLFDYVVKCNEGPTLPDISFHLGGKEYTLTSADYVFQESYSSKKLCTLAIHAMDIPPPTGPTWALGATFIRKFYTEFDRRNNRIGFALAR
Protocol: Compounds of Formula I were evaluated as inhibitors of human renin in an in vitro assay, as follows: This human renin inhibition test has been previously described in detail [Papaioannou et al., Clinical and Experimental Hypertension, A7(9), 1243-1257 (1985)]. Human renin was obtained from the National Institute for Biological Standards, London. An incubation mixture was prepared containing in a total volume of 0.25 mL 100 mM Tris-acetate buffer at pH 7.4, 25×10^-6 Goldblatt units of renin, 0.05 mL of plasma from human volunteers taking oral contraceptives, 6.0 mM sodium EDTA, 2.4 mM phenylmethyl sulfonyl fluoride, 1.5 mM 8-hydroxyquinoline, 0.4 mg/mL BSA, and 0.024 mg/mL neomycin sulfate. This mixture was incubated for two hours at 37° C. in the presence or absence of renin inhibitors. The produced angiotensin I was determined by radioimmunoassay (New England Nuclear kit). Test compounds to be assayed were solubilized in DMSO and diluted with 100 mM Trisacetate buffer at pH 7.4 containing 0.5% bovine serum albumin (BSA) to the appropriate concentration. The final concentration of organic solvent in the reaction mixture was less than 1%. Control incubations at 37° C. were used to correct for effects of organic solvent on renin activity.

hog renin = conditions: after injection of hog renin into nephrectomized rats; cited from earlier work
cathepsin D = conditions: cited from earlier work
pepsin = conditions: cited from earlier work
renin = conditions: cited from earlier work

IC50 (Human Renin) [nM]	SMILES	reduce blood pressure in vivo (hog renin)	inhibitor of cathepsin D (cathepsin D)	inhibitor of pepsin (pepsin)	inhibitor of renin (renin)
2.4	CC(C)C[C@H](NC(=O)[C@H](Cc1ccccc1)OC(=O)N(C)CCN(C)CCN(C)C)C(=O)N[C@@H](CC1CCCCC1)[C@@H](O)[C@@H](O)CC(C)C [Example 10]	–	–	–	–
1	CC(C)C[C@H](O)[C@H](O)[C@H](CC1CCCCC1)NC(=O)[C@H](Cc1cnc[nH]1)NC(=O)[C@H](Cc1ccccc1)OC(=O)N(C)CCN(C)CCN(C)C [Example 11, O-{N-[2-{N-[2-(N,N-dimethylamino)ethyl]-N-methylamino}-ethyl]-N-methylaminocarbonyl}-3-L-phenyllactyl-L-histidineamide of (2S,3R,4S)-2-amino-1-cyclohexyl-3,4-dihydroxy-6-methylheptane]	–	–	–	–
110	CC(C)C[C@H](O)[C@H](O)[C@H](CC1CCCCC1)NC(=O)[C@H](C)CNC(=O)[C@H](Cc1ccccc1)OC(=O)N(C)CCN(C)CCN(C)C [Example 12]	–	–	–	–
–	CC(C)CC(=O)N[C@H](C(=O)N[C@H](C(=O)N[C@@H](CC(C)C)[C@@H](O)CC(=O)N[C@@H](C)C(=O)N[C@@H](CC(C)C)[C@@H](O)CC(=O)O)C(C)C)C(C)C [pepstatin] (Isovaleryl-VV[Sta]A[Sta]-OH)	found to reduce blood pressure in vivo	inhibitor	inhibitor	inhibitor
